# Measured values reported in patent US12435044B2, “Pyridazinone herbicides and pyridazinone intermediates used to prepare a herbicide” (FMC Corporation, priority 2018, dated 2025).
# Legend:
# Format in all cases: in vivo
# Settings in all cases: scale 0 to 100
# [1] = test system: field poppy (Papaver rhoeas); assay: Test C postemergence greenhouse test
# Excerpt: (§1) Seeds of plant species selected from blackgrass (Alopecurus myosuroides), ryegrass, Italian (Lolium multiflorum), wheat, winter (winter wheat, Triticum aestivum), galium (catchweed bedstraw, Galium aparine), corn (Zea mays), crabgrass, large (Digitaria sanguinalis), foxtail, giant (Setaria faberii), johnsongrass (Sorghum halepense), lambsquarters (Chenopodium album), morningglory (Ipomoea coccinea), nutsedge, yellow (Cyperus esculentus), pigweed (Amaranthus retroflexus), ragweed (common ragweed, Ambrosia elatior), soybean (Glycine max), barnyardgrass (Echinochloa crus-galli), oilseed rape (Brassica napus), waterhemp (common waterhemp, Amaranthus rudis), pigweed, palmer (Amaranthus palmeri), kochia (Kochia scoparia), oat, wild (Avena fatua), surinam grass (Brachiaria decumbens), windgrass (Apera spica-venti), poinsettia, wild (Euphorbia heterophylla) and velvetleaf (Abutilon theophrasti) were planted into a silt loam soil and treated preemergence with test chemicals formulated in a non-phytotoxic solvent mixture which included a surfactant.
# (§2) At the same time, plants selected from these crop and weed species and also chickweed (common chickweed, Stellaria media), buckwheat, wild (Polygonum convolvulus), mustard, wild (Sinapis arvensis), field poppy (Papaver rhoeas), field violet (Viola arvensis), nightshade (eastern black nightshade, Solanum ptycanthum), speedwell (bird's-eye speedwell, Veronica persica), horseweed (Conyza canadensis), cutleaf geranium (Geranium dissectum), and Canada thistle (Cirsium arvense) were planted in pots containing Redi-Earth® planting medium (Scotts Company, 14111 Scottslawn Road, Marysville, Ohio 43041) comprising spaghnum peat moss, vermiculite, wetting agent and starter nutrients and treated with postemergence applications of test chemicals formulated in the same manner. Plants ranged in height from 2 to 18 cm (1- to 4-leaf stage) for postemergence treatments. Treated plants and controls were maintained in a greenhouse for 13 to 21 d, after which time all species were compared to controls and visually evaluated. Plant response ratings, summarized in Table C-1 (postemergence) and C-2 (preemergence), are based on a scale of 0 to 100 where 0 is no effect and 100 is complete control. A dash (-) response means no test result.
# [2] = test system: chickweed (common chickweed, Stellaria media); assay: Test C postemergence greenhouse test
# Excerpt: as §1, §2
# [3] = test system: wheat, winter (winter wheat, Triticum aestivum); assay: Test C pre-/postemergence greenhouse test
# Procedure, shortened: (§3)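 Seeds sown in silt loam soil and sprayed preemergence with test chemicals in a non-phytotoxic solvent mixture containing surfactant. Postemergence plants, 2 to 18 cm (1- to 4-leaf stage), grown in peat/vermiculite planting medium and treated with the same formulation. Visual injury rated 0–100 versus untreated controls after 13 to 21 d in the greenhouse.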
# [4] = test system: waterhemp (common waterhemp, Amaranthus rudis); assay: Test C pre-/postemergence greenhouse test
# Procedure, shortened: as §3
# kochia (Kochia scoparia) = assay: Test C pre-/postemergence greenhouse test
# Procedure, shortened: as §3
# [5] = test system: foxtail, giant (Setaria faberii); assay: Test C pre-/postemergence greenhouse test
# Procedure, shortened: as §3
# [6] = test system: velvetleaf (Abutilon theophrasti); assay: Test C pre-/postemergence greenhouse test
# Procedure, shortened: as §3
# [7] = test system: ryegrass, Italian (Lolium multiflorum); assay: Test C pre-/postemergence greenhouse test
# Procedure, shortened: as §3
# [8] = test system: pigweed, palmer (Amaranthus palmeri); assay: Test C pre-/postemergence greenhouse test
# Procedure, shortened: as §3
# oat, wild (Avena fatua) = assay: Test C pre-/postemergence greenhouse test
# Procedure, shortened: as §3
# [9] = test system: nutsedge, yellow (Cyperus esculentus); assay: Test C pre-/postemergence greenhouse test
# Procedure, shortened: as §3
# [10] = test system: surinam grass (Brachiaria decumbens); assay: Test C pre-/postemergence greenhouse test
# Procedure, shortened: as §3
structure (smiles),measurement,setting,value
Cc1cc(Cl)c2ccccc2c1-c1c(O)c(Cl)nn(C)c1=O [Cpd. No. 65],"Plant response rating, Field Poppy",[1]; 16 g ai/ha,80
same,"Plant response rating, Field Poppy",[1]; 31 g ai/ha,98
same,"Plant response rating, Field Poppy",[1]; 62 g ai/ha,98
same,"Plant response rating, Field Poppy",[1]; 125 g ai/ha,100
same,"Plant response rating, Chickweed",[2]; 16 g ai/ha,98
same,"Plant response rating, Chickweed",[2]; 31 g ai/ha,95
same,"Plant response rating, Chickweed",[2]; 62 g ai/ha,95
same,"Plant response rating, Chickweed",[2]; 125 g ai/ha,98
same,"Plant response rating, Wheat","[3]; Postemergence, 16 g ai/ha",90
same,"Plant response rating, Wheat","[3]; Postemergence, 31 g ai/ha",95
same,"Plant response rating, Wheat","[3]; Postemergence, 62 g ai/ha",95
same,"Plant response rating, Wheat","[3]; Postemergence, 125 g ai/ha",95
same,"Plant response rating, Wheat","[3]; Preemergence, 31 g ai/ha",60
same,"Plant response rating, Wheat","[3]; Preemergence, 61 g ai/ha",30
same,"Plant response rating, Wheat","[3]; Preemergence, 62 g ai/ha",80
same,"Plant response rating, Wheat","[3]; Preemergence, 125 g ai/ha",90
same,"Plant response rating, Waterhemp","[4]; Postemergence, 16 g ai/ha",80
same,"Plant response rating, Waterhemp","[4]; Postemergence, 31 g ai/ha",90
same,"Plant response rating, Waterhemp","[4]; Postemergence, 62 g ai/ha",95
same,"Plant response rating, Waterhemp","[4]; Postemergence, 125 g ai/ha",95
same,"Plant response rating, Waterhemp","[4]; Preemergence, 31 g ai/ha",75
same,"Plant response rating, Waterhemp","[4]; Preemergence, 61 g ai/ha",80
same,"Plant response rating, Waterhemp","[4]; Preemergence, 62 g ai/ha",85
same,"Plant response rating, Waterhemp","[4]; Preemergence, 125 g ai/ha",95
same,"Plant response rating, Kochia","kochia (Kochia scoparia); Postemergence, 16 g ai/ha",40
same,"Plant response rating, Kochia","kochia (Kochia scoparia); Postemergence, 31 g ai/ha",55
same,"Plant response rating, Kochia","kochia (Kochia scoparia); Postemergence, 62 g ai/ha",65
same,"Plant response rating, Kochia","kochia (Kochia scoparia); Postemergence, 125 g ai/ha",75
same,"Plant response rating, Kochia","kochia (Kochia scoparia); Preemergence, 31 g ai/ha",70
same,"Plant response rating, Kochia","kochia (Kochia scoparia); Preemergence, 61 g ai/ha",20
same,"Plant response rating, Kochia","kochia (Kochia scoparia); Preemergence, 62 g ai/ha",85
same,"Plant response rating, Kochia","kochia (Kochia scoparia); Preemergence, 125 g ai/ha",90
same,"Plant response rating, Foxtail, Giant","[5]; Postemergence, 16 g ai/ha",95
same,"Plant response rating, Foxtail, Giant","[5]; Postemergence, 31 g ai/ha",95
same,"Plant response rating, Foxtail, Giant","[5]; Postemergence, 62 g ai/ha",98
same,"Plant response rating, Foxtail, Giant","[5]; Postemergence, 125 g ai/ha",98
same,"Plant response rating, Foxtail, Giant","[5]; Preemergence, 31 g ai/ha",75
same,"Plant response rating, Foxtail, Giant","[5]; Preemergence, 61 g ai/ha",35
same,"Plant response rating, Foxtail, Giant","[5]; Preemergence, 62 g ai/ha",95
same,"Plant response rating, Foxtail, Giant","[5]; Preemergence, 125 g ai/ha",100
same,"Plant response rating, Velvetleaf","[6]; Postemergence, 16 g ai/ha",40
same,"Plant response rating, Velvetleaf","[6]; Postemergence, 31 g ai/ha",85
same,"Plant response rating, Velvetleaf","[6]; Postemergence, 62 g ai/ha",100
same,"Plant response rating, Velvetleaf","[6]; Postemergence, 125 g ai/ha",100
same,"Plant response rating, Velvetleaf","[6]; Preemergence, 31 g ai/ha",60
same,"Plant response rating, Velvetleaf","[6]; Preemergence, 61 g ai/ha",40
same,"Plant response rating, Velvetleaf","[6]; Preemergence, 62 g ai/ha",75
same,"Plant response rating, Velvetleaf","[6]; Preemergence, 125 g ai/ha",100
same,"Plant response rating, Ryegrass, Italian","[7]; Postemergence, 16 g ai/ha",85
same,"Plant response rating, Ryegrass, Italian","[7]; Postemergence, 31 g ai/ha",95
same,"Plant response rating, Ryegrass, Italian","[7]; Postemergence, 62 g ai/ha",95
same,"Plant response rating, Ryegrass, Italian","[7]; Postemergence, 125 g ai/ha",95
same,"Plant response rating, Ryegrass, Italian","[7]; Preemergence, 31 g ai/ha",70
same,"Plant response rating, Ryegrass, Italian","[7]; Preemergence, 61 g ai/ha",40
same,"Plant response rating, Ryegrass, Italian","[7]; Preemergence, 62 g ai/ha",95
same,"Plant response rating, Ryegrass, Italian","[7]; Preemergence, 125 g ai/ha",95
same,"Plant response rating, Pigweed, Palmer","[8]; Postemergence, 16 g ai/ha",35
same,"Plant response rating, Pigweed, Palmer","[8]; Postemergence, 31 g ai/ha",55
same,"Plant response rating, Pigweed, Palmer","[8]; Postemergence, 62 g ai/ha",60
same,"Plant response rating, Pigweed, Palmer","[8]; Postemergence, 125 g ai/ha",95
same,"Plant response rating, Pigweed, Palmer","[8]; Preemergence, 31 g ai/ha",70
same,"Plant response rating, Pigweed, Palmer","[8]; Preemergence, 61 g ai/ha",50
same,"Plant response rating, Pigweed, Palmer","[8]; Preemergence, 62 g ai/ha",100
same,"Plant response rating, Pigweed, Palmer","[8]; Preemergence, 125 g ai/ha",100
same,"Plant response rating, Oat, Wild","oat, wild (Avena fatua); Postemergence, 16 g ai/ha",98
same,"Plant response rating, Oat, Wild","oat, wild (Avena fatua); Postemergence, 31 g ai/ha",100
same,"Plant response rating, Oat, Wild","oat, wild (Avena fatua); Postemergence, 62 g ai/ha",100
same,"Plant response rating, Oat, Wild","oat, wild (Avena fatua); Postemergence, 125 g ai/ha",100
same,"Plant response rating, Oat, Wild","oat, wild (Avena fatua); Preemergence, 31 g ai/ha",35
same,"Plant response rating, Oat, Wild","oat, wild (Avena fatua); Preemergence, 61 g ai/ha",30
same,"Plant response rating, Oat, Wild","oat, wild (Avena fatua); Preemergence, 62 g ai/ha",40
same,"Plant response rating, Oat, Wild","oat, wild (Avena fatua); Preemergence, 125 g ai/ha",60
same,"Plant response rating, Nutsedge, Yellow","[9]; Postemergence, 16 g ai/ha",50
same,"Plant response rating, Nutsedge, Yellow","[9]; Postemergence, 31 g ai/ha",75
same,"Plant response rating, Nutsedge, Yellow","[9]; Postemergence, 62 g ai/ha",65
same,"Plant response rating, Nutsedge, Yellow","[9]; Postemergence, 125 g ai/ha",95
same,"Plant response rating, Nutsedge, Yellow","[9]; Preemergence, 31 g ai/ha",75
same,"Plant response rating, Nutsedge, Yellow","[9]; Preemergence, 61 g ai/ha",10
same,"Plant response rating, Nutsedge, Yellow","[9]; Preemergence, 62 g ai/ha",75
same,"Plant response rating, Nutsedge, Yellow","[9]; Preemergence, 125 g ai/ha",95
same,"Plant response rating, Surinam Grass","[10]; Postemergence, 16 g ai/ha",90
same,"Plant response rating, Surinam Grass","[10]; Postemergence, 31 g ai/ha",90
same,"Plant response rating, Surinam Grass","[10]; Postemergence, 62 g ai/ha",95
same,"Plant response rating, Surinam Grass","[10]; Postemergence, 125 g ai/ha",95
same,"Plant response rating, Surinam Grass","[10]; Preemergence, 31 g ai/ha",55
same,"Plant response rating, Surinam Grass","[10]; Preemergence, 61 g ai/ha",15
same,"Plant response rating, Surinam Grass","[10]; Preemergence, 62 g ai/ha",70
same,"Plant response rating, Surinam Grass","[10]; Preemergence, 125 g ai/ha",100
